From patent US20230338454A1, “FORSYTHIA SUSPENSA COMPONENT AND OPTIONAL PANAX GINSENG COMPONENT AND THE APPLICATION” (priority 2020, published 2023)
Like-named read-outs stand apart in the source and are kept apart here.

Columns and labels:
[1] = tested on: respiratory syncytial virus (RSV); experiment: Effect of drugs on viral cytopathic effect, effective antiviral rate (ER%); type: cell-based; conditions: Vero cells, 100TCID50, drug at maximum non-toxic concentration, 72 h, MTT
influenza virus [2] = type: in vivo, Kunming mice; conditions: 13.0 mg/kg/day by gavage, 5 days
[3] = tested on: epithelial cells of plantar sweat glands of rats; experiment: Sweat secretion of rat paw (histomorphology observation method); type: in vivo, Wistar rats; conditions: 1 h after gavage, dose not given
Text: After sweat glands activation in rats, besides the increase of sweat secretion, the morphology of the epithelial cells of the sweat glands changes accordingly. Under the optical microscope, the increase and enlargement of vacuoles in the epithelial cells of the sweat glands are observed. Under an electron microscope, the enlarged vacuoles appear to be due to swelling and rupture of mitochondria, enlargement of fusion and secretory vesicles in the epithelial cells of sweat glands. The secretory activity of sweat glands could be understood by observing the histomorphology of the epithelial cells of plantar sweat glands of rats. Three hundred Wistar rats, half male and half female, weighing 120-160 g. were taken in the study. […] Except for the pilocarpine solution given by subcutaneous injection, other groups were administered by gavage. One hour after the control group was given 0.5% carboxymethyl cellulose, 30 min after the positive drug group was given pilocarpine, and 1 h after the administration of forsythin, ginsenoside Rg3 and the panax ginseng-forsythia suspensa composition, the right hind limb was immediately cut off at the level of the ankle joint. […] Observations were made under an optical microscope for changes in the epithelial cells of the plantar sweat glands of rats in each group, mainly the incidence of vacuoles. The statistical processing was performed by X^2 test, and differences among the groups were compared. The above study was repeated for 3 times.

Vero cells = experiment: Cytotoxicity test of drugs on Vero cells (MTT); conditions: 72 h
[4] = tested on: fever induced by beer yeast; experiment: Fever induced by beer yeast in rats; type: in vivo, Wistar rats; conditions: 10 mg/kg; for Body temperature change (%) (antipyretic percentage), time post-dose 1 h / Body temperature, time post-dose 1 h: 1 h post-dose; for Body temperature change (%) (antipyretic percentage), time post-dose 2 h / Body temperature, time post-dose 2 h: 2 h post-dose; for Body temperature change (%) (antipyretic percentage), time post-dose 3 h / Body temperature, time post-dose 3 h: 3 h post-dose; for Body temperature change (%) (antipyretic percentage), time post-dose 4 h / Body temperature, time post-dose 4 h: 4 h post-dose
[5] = tested on: Coxsackievirus A16 (CoxA16); experiment: Effect of drugs on viral cytopathic effect, effective antiviral rate (ER%); type: cell-based; conditions: Vero cells, 100TCID50, drug at maximum non-toxic concentration, 72 h, MTT
Coxsackievirus B3 (CVB3) = experiment: as above; type: cell-based; conditions: Vero cells, 100TCID50, drug at maximum non-toxic concentration, 72 h, MTT
[6] = tested on: NK cells (YAC-1 target cells); experiment: Determination of NK cell viability; type: in vivo, Kunming mice; conditions: 144 mg/kg; gavage once daily for 30 days; mice
Text: One hundred and fifty-two healthy male mice were subjected to acclimation for 4 days before they were randomly divided into 19 groups: the negative control group, positive control group, forsythin group, 20(R)-ginsenoside Rg3 group, high, middle and low dose groups of panax ginseng-forsythia suspensa composition. […] The drugs were given by gavage, once daily for 30 days, and the negative control group was given the same volume of water. One hour after the last dose, the spleens of animals of each group were aseptically excised to prepare splenocyte suspension. […] Then, the concentration of splenocyte suspension was adjusted to 2×10^7 cells/mL. and the splenocyte suspension was added into a 96-well plate for culturing. […] A triplicate set of tubes was prepared for each of the above items. The 96-well plate was incubated at 37° C. in a 5% CO2 incubator for 4 h. After adding LDH matrix solution and 1 moL/L HCl, the solutions in each parallel well were combined, and the absorbance (ABS) was measured at 490 nm. The NK cell viability was calculated: NK cell viability (%) = (ABS reaction well -ABS natural release well)/(ABS maximum release well -ABS natural release well).

[7] = tested on: carrageenan-induced paw swelling; experiment: Carrageenan-induced paw swelling in rats; type: in vivo, Wistar rats; conditions: sublingual intravenous injection; for Swelling rate (%) 15 min: 15 min after inflammation induction; for Swelling rate (%) 30 min: 30 min after inflammation induction; for Swelling rate (%) 60 min: 60 min after inflammation induction; for Swelling rate (%) 120 min: 120 min after inflammation induction; for Swelling rate (%) 180 min: 180 min after inflammation induction; for Swelling rate (%) 240 min: 240 min after inflammation induction; for Swelling rate (%) 300 min: 300 min after inflammation induction; for Swelling rate (%) 360 min: 360 min after inflammation induction
Procedure: Each group was administered by sublingual intravenous injection. Before the study, the normal volume of the right hind limb was measured by the capillary magnification method. To avoid errors, the measurement position should be fixed and performed by one person before and after administration. The average of the two measurements was taken as the normal volume of the right hind limb of the rats prior to administration. […] The inter-group t-test was performed by the difference percentage (swelling rate) of the plantar volume before and after the inflammation induction, and the differences among the groups were compared.

Adenovirus (AdV) = experiment: Effect of drugs on viral cytopathic effect, effective antiviral rate (ER%); type: cell-based; conditions: Vero cells, 100TCID50, drug at maximum non-toxic concentration, 72 h, MTT
[8] = tested on: mouse splenic lymphocytes; experiment: ConA-induced mouse splenic lymphocyte transformation test; type: in vivo, Kunming mice; conditions: 144 mg/kg; gavage once daily for 30 days; mice; ABSa-ABSb at 570 nm
Procedure: One hundred and fifty-two healthy male mice were subjected to acclimation for 4 days before they were randomly divided into 19 groups: the negative control group, positive control group, forsythin group, 20(R)-ginsenoside Rg3 group, high, middle and low dose groups of panax ginseng-forsythia suspensa composition. […] The drugs were given by gavage, once daily for 30 days, and the negative control group was given the same volume of water. At 1 h after the last dose, the spleens of animals of each group were aseptically excised to prepare splenocyte suspension. After diluting the splenocyte suspension to a concentration of 3×10^6 cells/mL, the splenocyte suspension was divided into 2 aliquots.Each of the aliquot was transferred into two 24-well culture plates at a volume of 1 mL/well followed by addition of 75 µL of ConA solution (a) was added to one well, and the other well was used as control (b). The wells were cultured at 37° C. for 72 h. Then, thiazolyl blue (MTT) was added 4 h before the end of the culture. After incubation, acidic isopropanol was added, and the absorbance (ABS) of each solution was measured at 570 nm after it was mixed well. The proliferativity was calculated using the formula: proliferativity = ABSa-ABSb. Each dose group of the test sample was compared with the negative control group.

Influenza virus [9] = experiment: Effect of drugs on viral cytopathic effect, effective antiviral rate (ER%); type: cell-based
[10] = lung suspension, mice infected with influenza virus

## CC(C)=CCC[C@](C)(O)[C@H]1CC[C@]2(C)[C@@H]1[C@H](O)C[C@@H]1[C@@]3(C)CC[C@H](O[C@@H]4O[C@H](CO)[C@@H](O)[C@H](O)[C@H]4O[C@@H]4O[C@H](CO)[C@@H](O)[C@H](O)[C@H]4O)C(C)(C)[C@@H]3CC[C@]12C [20(R)-Ginsenoside Rg3, 20(R)-ginsenoside Rg3]
[1]
  Effective Antiviral Rates (ER%) RSV: 79.42^∗∗ %
Influenza virus [2]; […]
  Hemagglutinin titer (InX): 22.61±1.059
  Inhibitory rate (%) of hemagglutination titer: 30.22%
[3]
  Number of vacuolar sweat glands (number): 79 number
  Vacuolation rate (%): 20.26^∗∗ %
Vero cells
  Half toxic concentration (TC50): 310 µg/mL
  Maximum non-toxic concentration (TC0): 0.0048 g/L
[4]
  Body temperature change (%) (antipyretic percentage), time post-dose 1 h: -0.3±0.41%
  Body temperature, time post-dose 1 h: 39.31±0.48 °C
  Body temperature change (%) (antipyretic percentage), time post-dose 2 h: -0.69±0.93^∗ %
  Body temperature, time post-dose 2 h: 39.04±0.45 °C
  Body temperature change (%) (antipyretic percentage), time post-dose 3 h: -1.03±1.18^∗ %
  Body temperature, time post-dose 3 h: 38.91±0.40 °C
  Body temperature change (%) (antipyretic percentage), time post-dose 4 h: -1.55±1.23^∗ %
  Body temperature, time post-dose 4 h: 38.70±0.31 °C
[5]
  Effective Antiviral Rates (ER%) CoxA16: 52.33%
Coxsackievirus B3 (CVB3)
  Effective Antiviral Rates (ER%) CVB3: 53.75%
[6]
  NK cell viability (%): 37.34±7.21%
[7]; 2.5 mg/kg
  Swelling rate (%) 15 min: 14.8±8.74%
  Swelling rate (%) 30 min: 18.9±12.1%
  Swelling rate (%) 60 min: 23.5±13.3^∗▲▲ %
  Swelling rate (%) 120 min: 28.9±14.2^∗∗Δ▲ %
  Swelling rate (%) 180 min: 31.8±14.8^∗∗Δ▲ %
  Swelling rate (%) 240 min: 33.1±18.3^∗∗Δ▲ %
  Swelling rate (%) 300 min: 34.9±19.6^∗∗Δ▲ %
  Swelling rate (%) 360 min: 37.8±18.3^∗▲▲ %
[7]; 10.0 mg/kg
  Swelling rate (%) 15 min: 14.9±6.13%
  Swelling rate (%) 30 min: 21.9±9.72%
  Swelling rate (%) 60 min: 27.1±13.5%
  Swelling rate (%) 120 min: 30.7±10.2^∗ %
  Swelling rate (%) 180 min: 33.8±12.1^∗ %
  Swelling rate (%) 240 min: 31.0±11.3^∗ %
  Swelling rate (%) 300 min: 35.8±13.5^∗ %
  Swelling rate (%) 360 min: 36.4±10.2%
Adenovirus (AdV)
  Effective Antiviral Rates (ER%) ADV: 51.07%
[8]
  Proliferation ability (×10^-2): 23.9±11.70 ×10^-2
Influenza virus [9]
  Effective Antiviral Rates (ER%) Influenza virus: 74.06^∗∗ %

## COc1ccc([C@H]2OCC3C2CO[C@H]3c2ccc(O[C@@H]3OC(CO)[C@@H](O)[C@H](O)C3O)c(OC)c2)cc1OC (stereo partly drawn) [Forsythin]
[1]
  Effective Antiviral Rates (ER%) RSV: 80.40^∗∗ %
Influenza virus [2]; [10]
  Hemagglutinin titer (InX): 22.06±1.120
  Inhibitory rate (%) of hemagglutination titer: 31.90%
[3]
  Number of vacuolar sweat glands (number): 86 number
  Vacuolation rate (%): 22.15^∗∗ %
Vero cells
  Half toxic concentration (TC50): 550 µg/mL
  Maximum non-toxic concentration (TC0): 0.0066 g/L
[4]
  Body temperature change (%) (antipyretic percentage), time post-dose 1 h: -0.60±0.39%
  Body temperature, time post-dose 1 h: 39.13±0.52 °C
  Body temperature change (%) (antipyretic percentage), time post-dose 2 h: -0.92±0.93^∗∗ %
  Body temperature, time post-dose 2 h: 38.77±0.42 °C
  Body temperature change (%) (antipyretic percentage), time post-dose 3 h: -1.29±1.18^∗ %
  Body temperature, time post-dose 3 h: 38.63±0.40 °C
  Body temperature change (%) (antipyretic percentage), time post-dose 4 h: -1.70±1.23^∗ %
  Body temperature, time post-dose 4 h: 38.46±0.31 °C
[5]
  Effective Antiviral Rates (ER%) CoxA16: 75.08^∗∗ %
Coxsackievirus B3 (CVB3)
  Effective Antiviral Rates (ER%) CVB3: 75.27^∗∗ %
[6]
  NK cell viability (%): 41.86±7.24%
[7]; 10.0 mg/kg
  Swelling rate (%) 15 min: 12.9±8.41%
  Swelling rate (%) 30 min: 19.9±9.55%
  Swelling rate (%) 60 min: 21.8±11.8 %
  Swelling rate (%) 120 min: 28.9±14.0^∗ %
  Swelling rate (%) 180 min: 30.8±15.4^∗ %
  Swelling rate (%) 240 min: 29.9±11.1^∗ %
  Swelling rate (%) 300 min: 33.5±10.0^∗ %
  Swelling rate (%) 360 min: 32.2±11.9^∗ %
Adenovirus (AdV)
  Effective Antiviral Rates (ER%) ADV: 75.14^∗∗ %
[8]
  Proliferation ability (×10^-2): 28.66±12.63 ×10^-2
Influenza virus [9]; Vero cells, 100TCID50, drug at maximum non-toxic concentration, 72 h, MTT
  Effective Antiviral Rates (ER%) Influenza virus: 75.38^∗∗ %
